# Measurements published in patent publication US20210069134A1 (priority 2019, published 2021).
# “Also recorded” adds a separate entry of the source.
# Experiments:
# Format in all cases: in vivo, rat
# Long Evans Hooded rats [1] = experiment: Elevated Plus Maze (EPM) test after developmental Pb^2+ exposure, acute i.p. drug; conditions: for anxiolytic OTC ratio, sensitivity to drug / EPM track plot and group mean activity (10-min): 43 mg/kg i.p.
# [2] = tested on: prelimbic (PrL), infralimbic (IL), orbital ventral frontal (OV), orbital ventro-lateral (OVL), and hippocampal (HP) brain regions; experiment: LC/MS GABA:Neurotransmitter and Taurine:Neurotransmitter ratios in brain sub-regions after the ASST; conditions: male rats, OVL (all four brain regions), taurine co-treatment
# Procedure: Immediately following the ASST, rats were deeply anesthetized using Isoflurane, then sacrificed, and their brains were extracted in cold physiological buffered saline (PBS) pH 7.4 in under 2-min. The rat whole brains were then transferred into a coronal sectioning steel brain matrix for 175-300 g rodents (Stoelting, Inc. Wood Dale, Ill.). […] The collected brain regions were stored at −80° C. until ready for subsequent neurochemical assessments.
# The brain sub-regions were then manually homogenized with sterile glass homogenizers (i.e., total volume 3 mL) using a 10 mg/100 μL (1:10) dilution of 100% acetonitrile ([…]) (Sigma-Aldrich, St Louis, Mo.) as a miscible (i.e., fully dissolvable solution) with a dielectric constant to study the separation of chemicals by mass charge and polarity. Post homogenization, samples were sonicated for 30 sec with a pulse on:off time of 10 sec at an amplitude of 20%, then centrifuged at […] for 5-min at 4° C., and the supernatant collected and stored at −20° C. until ready for LC/MS. […] The mass/charge (m/z) values of neurotransmitters were monitored and peak heights were obtained to compare the amount of neurotransmitters within- and between-samples. The elution was performed with a flow rate of 0.2 mL/min and the neurotransmitters that were eluted from the column were detected in the positive ion mode. […]
# Long Evans Hooded rats [3] = experiment: Attention Set-Shift Test (ASST) after developmental Pb^2+ exposure with taurine co-treatment; conditions: for Pb^2+-induced frontoexecutive dysfunctions (ASST task performance), overall: both sexes, 150 ppm Pb^2+ + 0.05% Taurine co-treatment; for errors-to-criterion (ETC), odor (OD) and digging medium (MD) simple discrimination training / trials-to-criterion (TTC), odor (OD) and digging medium (MD) simple discrimination training: vs Control and Perinatal; for rate-of-learning cumulative record across ASST stages: 150 ppm Pb^2+ + Taurine 0.05%
# [4] = female rats, 150 ppm Pb^2+ + 0.05% Taurine
# [5] = female rats, 150 ppm Pb^2+ + 0.05% Taurine in drinking water to PND 22
# [6] = female rats, 150 ppm Pb^2+ + 0.05% Taurine, most recovery at ED and ED-Rev
# [7] = male rats, 150 ppm Pb^2+ + 0.05% Taurine
# [8] = male rats, 150 ppm Pb^2+ + 0.05% Taurine in drinking water to PND 22
# [9] = male rats, 150 ppm Pb^2+ + 0.05% Taurine in drinking water to PND 22, listed as taurine
# [10] = male rats, 150 ppm Pb^2+ + 0.05% Taurine, listed as taurine
structure (smiles),measurement,setting,value
"NCCC(=O)O [TD-101, 3-aminopropanoic acid]","anxiolytic OTC ratio, sensitivity to drug",Long Evans Hooded rats [1]; control female rats,most sensitive
same,"anxiolytic OTC ratio, sensitivity to drug",Long Evans Hooded rats [1]; control male rats,most sensitive
NCS(=O)(=O)O [TD-102],"anxiolytic OTC ratio, sensitivity to drug","Long Evans Hooded rats [1]; Peri-22 1,000 ppm females",sensitive
same,"anxiolytic OTC ratio, sensitivity to drug","Long Evans Hooded rats [1]; Peri-22 1,000 ppm male rats",only sensitive
same,"anxiolytic OTC ratio, sensitivity to drug",Long Evans Hooded rats [1]; control male rats,most sensitive
"Nc1ccccc1S(=O)(=O)O [TD-103, 2-aminobenzenesulfonic acid]","anxiolytic OTC ratio, sensitivity to drug",Long Evans Hooded rats [1]; control female rats,most sensitive
"NCCS(=O)(=O)O [Taurine, 2-aminoethanesulfonic acid]",Pb^2+-induced anxiogenic response in the EPM,"Long Evans Hooded rats [1]; 43 mg/Kg i.p. 15-min prior to testing, PND 36-45, both genders",ameliorated in a gender-specific manner
same,EPM track plot and group mean activity (10-min),Long Evans Hooded rats [1]; Control (0 ppm) female rats,increased anxiolytic response
same,EPM track plot and group mean activity (10-min),Long Evans Hooded rats [1]; Control (0 ppm) male rats,increased anxiolytic response
same,Taurine:Dopamine levels,[2],elevated
same,"Pb^2+-induced frontoexecutive dysfunctions (ASST task performance), overall",Long Evans Hooded rats [3],recovered these frontoexecutive dysfunctions to levels equivalent to Control rats
same,"Pb^2+-induced frontoexecutive dysfunctions (ASST task performance), overall",Long Evans Hooded rats [3]; listed as taurine,effective in mitigating or at least reducing most; also recorded: sex-dependent recovery
same,"ETC, reacquisition learning",Long Evans Hooded rats [3]; [4],no differences
same,"TTC, reacquisition learning",Long Evans Hooded rats [3]; [4],no differences
same,"errors-to-criterion (ETC), OD and MD simple discrimination training",Long Evans Hooded rats [3]; [5],no differences
same,"trials-to-criterion (TTC), OD and MD simple discrimination training",Long Evans Hooded rats [3]; [5],no differences
same,"ASST performance, ETC",Long Evans Hooded rats [3]; [6],recovered these deficits to performance levels comparative to Control males; also recorded: recovered ASST performance to rates comparable to Control female rats
same,"ASST performance, TTC",Long Evans Hooded rats [3]; [6],recovered these deficits to performance levels comparative to Control males; also recorded: recovered ASST performance to rates comparable to Control female rats
same,"ETC, reacquisition learning (CD-Reacquisition and ID-Reacquisition)",Long Evans Hooded rats [3]; [7],fewer ETC errors
same,"TTC, reacquisition learning (CD-Reacquisition and ID-Reacquisition)",Long Evans Hooded rats [3]; [7],recovery from the TTC reacquisition learning impairment
same,"errors-to-criterion (ETC), odor (OD) and digging medium (MD) simple discrimination training",Long Evans Hooded rats [3]; [8],significant difficulty in learning
same,"trials-to-criterion (TTC), odor (OD) and digging medium (MD) simple discrimination training",Long Evans Hooded rats [3]; [8],significant difficulty in learning
same,"errors-to-criterion (ETC), odor (OD) and digging medium (MD) simple discrimination training",Long Evans Hooded rats [3]; [9],caused learning delays
same,"trials-to-criterion (TTC), odor (OD) and digging medium (MD) simple discrimination training",Long Evans Hooded rats [3]; [9],caused learning delays
same,"ETC, reacquisition learning (CD-Reacquisition and ID-Reacquisition)",Long Evans Hooded rats [3]; [10],recovered reacquisition learning performance deficits to rates comparable to Control male rats
same,"TTC, reacquisition learning (CD-Reacquisition and ID-Reacquisition)",Long Evans Hooded rats [3]; [10],recovered reacquisition learning performance deficits to rates comparable to Control male rats
same,"ASST performance, ETC","Long Evans Hooded rats [3]; male rats, 150 ppm Pb^2+ + 0.05% Taurine, most recovery at CD-Rev and ID",recovered these deficits to performance levels comparative to Control males; also recorded: recovered ASST performance to rates comparable to Control male rats
same,"ASST performance, TTC","Long Evans Hooded rats [3]; male rats, 150 ppm Pb^2+ + 0.05% Taurine, most recovery at CD-Rev, ID, ED",recovered these deficits to performance levels comparative to Control males; also recorded: recovered ASST performance to rates comparable to Control male rats
same,rate-of-learning cumulative record across ASST stages,Long Evans Hooded rats [3]; single representative female rat,quicker rate-of-learning with less sequential errors
same,rate-of-learning cumulative record across ASST stages,"Long Evans Hooded rats [3]; single representative female rat, listed as taurine",significant improvements
same,rate-of-learning cumulative record across ASST stages,Long Evans Hooded rats [3]; single representative male rat,quicker rate-of-learning with less sequential errors
same,rate-of-learning cumulative record across ASST stages,"Long Evans Hooded rats [3]; single representative male rat, listed as taurine",significant improvements
